By melting point is commonly meant the temperature, or range, at which the solid turns liquid.

The first data set concerns HCV replicon. In words: microbe, parasite or virus in culture. In kind it is cell-based. Conditions: Hepatitis C virus, 48 h, read-out: Replicon IC5Os μM.
For `CCn1c(-c2ccc(NS(=O)(=O)C(C)C)cc2)c(C#N)c2cc(OC)ccc21` [Compound 790], the IC50 was less than 0.5 µM.

In the case of `CCCC(=O)Nc1ccc(-c2c(C#N)c3ccc(OC)cc3n2CC)cc1` [Compound 799], the IC50 is less than 0.5 µM.

As to `CCn1c(-c2ccc(NC(=O)C3CC3)cc2)c(C#N)c2ccccc21` [Compound 854], the IC50 fell in the range of 0.5 to 2 µM.

As for `CCn1c(-c2ccc(NC(=O)C(C)C)cc2)c(C#N)c2ccccc21` [Compound 855], the IC50 is 0.5 to 2 µM.

Turning to `CCn1c(-c2ccc(NC(=O)C(C)C)cc2)c(C#N)c2cc(OC)ccc21` [Compound 858], the IC50 is less than 0.5 µM.

Turning to `CCn1c(-c2ccc(C(=O)N3CC3)cc2)c(C#N)c2cc(OC)ccc21` [Compound 861], the IC50 is 0.5 to 2 µM.

As to `CCn1c(-c2ccc(N3CCOC3=O)cc2)c(C#N)c2ccc(OC)cc21` [Compound 863], the IC50 was in the range of 0.5 to 2 µM.

Staying with this data set, now noted: bicistronic HCV replicon, determined by firefly luciferase signal, cells cultured with compound for 2 days; read-out: Replicon IC5Os.
Take `CCn1c(-c2ccc(NC(=O)c3ccc4nonc4c3)cc2)c(C#N)c2cc(OC)ccc21` [Compound 765]: the IC50 is 0.5 to 2 µM.

On to `CCS(=O)(=O)N(C(C)=O)c1ccc(-c2cc3ccc(OC)cc3n2C(=O)OC(C)(C)C)cc1` [Compound 769], for which the IC50 is more than 2 µM.

For `CCn1c(-c2cccc(N3CCNC3=O)c2)c(C#N)c2ccc(OC)cc21` [Compound 770], the IC50 was more than 2 µM.

With `CCCn1c(-c2ccc(N3CCCS3(=O)=O)cc2)c(C#N)c2ccc(OCCOC(C)=O)cc21` [Compound 775], the IC50 fell in the range of 0.5 to 2 µM.

On to `CCOc1ccc2c(C#N)c(-c3ccc(N4CCNC4=O)cc3)n(CC)c2c1` [Compound 778], for which the IC50 was less than 0.5 µM.

`CCCn1c(-c2cccc(N3CCCS3(=O)=O)c2)c(C#N)c2ccc(OC)cc21` [Compound 783]: the IC50 is more than 2 µM.

Take `CCn1c(N2CCC(NC(=O)OC(C)(C)C)CC2)c(C#N)c2ccc(C(F)(F)F)cc21` [Compound 786]: the IC50 is more than 2 µM.

For `COC(=O)Nc1cccc(-c2c(C#N)c3ccc(OC)cc3n2Cc2ccccc2)c1` [Compound 787], the IC50 was more than 2 µM.

`CCCCOC(=O)Nc1cccc(-c2c(C#N)c3ccc(OC)cc3n2Cc2ccccc2)c1` [Compound 788]: the IC50 is more than 2 µM.

With `CCn1c(-c2ccc(N)cc2)c(C#N)c2cc(O)ccc21` [Compound 797], the IC50 fell in the range of 0.5 to 2 µM.

Take `CCn1c(-c2ccc(NC(=O)c3cc(C)on3)cc2)c(C#N)c2ccc(OC(C)C)cc21` [Compound 798]: the IC50 was more than 2 µM.

`CCn1c(-c2ccc(NC(=O)c3ccco3)cc2)c(C#N)c2ccc(OC)cc21` [Compound 803]: the IC50 is more than 2 µM.

For `CCn1c(-c2ccc(NC(=O)c3cc(C)on3)cc2)c(C#N)c2ccc(OC)cc21` [Compound 804], the IC50 was more than 2 µM.

As for `N#Cc1c(-c2ccc(N3CCCC3=O)cc2)n(CC2CC2)c2cc(OC(F)F)ccc12` [Compound 806], the IC50 is 0.5 to 2 µM.

As for `CCCn1c(-c2ccc(N3CCCC3=O)cc2)c(C#N)c2ccc(OC(F)F)cc21` [Compound 808], the IC50 lay in the range of 0.5 to 2 µM.

For the molecule `CC(C)n1c(-c2ccc(N3CCCC3=O)cc2)c(C#N)c2ccc(OC(F)F)cc21` [Compound 809], the IC50 was in the range of 0.5 to 2 µM.

Regarding `N#Cc1c(-c2ccc(N3CCCC3=O)cc2)n(C2CCC2)c2cc(OC(F)F)ccc12` [Compound 810], the IC50 lay in the range of 0.5 to 2 µM.

For the molecule `N#Cc1c(-c2ccc(N)cc2)n(C2CCC2)c2cc(OC(F)F)ccc12` [Compound 811], the IC50 was more than 2 µM.

With `CCCS(=O)(=O)Nc1ccc(-c2c(C#N)c3ccc(OC(F)F)cc3n2C2CCC2)cc1` [Compound 812], the IC50 lay in the range of 0.5 to 2 µM.

`N#Cc1c(-c2ccc(NS(=O)(=O)C3CC3)cc2)n(C2CCC2)c2cc(OC(F)F)ccc12` [Compound 813]: the IC50 was less than 0.5 µM.

Regarding `CCCNC(=O)Nc1cccc(-c2c(C#N)c3ccc(OC)cc3n2Cc2ccccc2)c1` [Compound 817], the IC50 is more than 2 µM.

For the molecule `CCn1c(-c2cc(N3CCOC3=O)ccc2F)c(C#N)c2ccc(OC(C)C)cc21` [Compound 820], the IC50 was in the range of 0.5 to 2 µM.

Turning to `CCn1c(-c2ccc(F)c(N3CCOC3=O)c2)c(C#N)c2ccc(OC(C)C)cc21` [Compound 821], the IC50 was more than 2 µM.

With `COCCOC(=O)Nc1ccc(-c2c(C#N)c3ccc(OC(F)F)cc3n2C2CCC2)cc1` [Compound 823], the IC50 was more than 2 µM.

In the case of `CCCn1c(-c2ccc(NC(=O)OC(C)C)cc2)c(C#N)c2ccc(OC(F)F)cc21` [Compound 824], the IC50 was more than 2 µM.

As to `CCCn1c(-c2ccc(NC(=O)OCCOC)cc2)c(C#N)c2ccc(OC(F)F)cc21` [Compound 825], the IC50 was more than 2 µM.

Regarding `CCCn1c(-c2ccc(NC(=O)OCCF)cc2)c(C#N)c2ccc(OC(F)F)cc21` [Compound 826], the IC50 lay within 0.5 to 2 µM.

For the molecule `N#Cc1c(-c2ccc(N3CCCS3(=O)=O)cc2)[nH]c2cc(OC(F)(F)F)ccc12` [Compound 829], the IC50 lay in the range of 0.5 to 2 µM.

Turning to `CCn1c(-c2ccc(OC(F)F)cc2)c(C#N)c2ccc(NS(=O)(=O)CC)cc21` [Compound 830], the IC50 lay in the range of 0.5 to 2 µM.

`CCCS(=O)(=O)Nc1ccc2c(C#N)c(-c3ccc(OCC)cc3)n(CC)c2c1` [Compound 836]: the IC50 was more than 2 µM.

As for `CCOc1ccc(-c2c(C#N)c3ccc(NS(=O)(=O)C4CC4)cc3n2CC)cc1` [Compound 837], the IC50 was more than 2 µM.

In the case of `CCn1c(-c2ccc(N(C)S(=O)(=O)C3CC3)cc2)c(C#N)c2ccc(OCCF)cc21` [Compound 840], the IC50 was more than 2 µM.

With `CCCS(=O)(=O)N1CCN(c2c(C#N)c3ccc(C(F)(F)F)cc3n2CC)CC1` [Compound 841], the IC50 was more than 2 µM.

Regarding `CCn1c(N2CCN(S(=O)(=O)c3ccccc3)CC2)c(C#N)c2ccc(C(F)(F)F)cc21` [Compound 843], the IC50 was more than 2 µM.

With `CCCn1c(-c2ccc(NC(=O)NC(C)C)cc2)c(C#N)c2ccc(OC)cc21` [Compound 846], the IC50 was 0.5 to 2 µM.

Turning to `CCCCNC(=O)Nc1ccc(-c2c(C#N)c3ccc(OC)cc3n2CCC)cc1` [Compound 847], the IC50 is 0.5 to 2 µM.

With `CCCn1c(-c2ccc(NC(=O)OC)cc2)c(C#N)c2ccc(OC)cc21` [Compound 849], the IC50 fell in the range of 0.5 to 2 µM.

On to `CCCn1c(-c2ccc(N(CC)S(=O)(=O)CC)cc2)c(C#N)c2ccc(OC)cc21` [Compound 852], for which the IC50 was 0.5 to 2 µM.

For `CCn1c(-c2ccc(C(=O)N3CC3)cc2)c(C#N)c2ccc(OC)cc21` [Compound 853], the IC50 was less than 0.5 µM.

For `CCn1c(-c2ccc(NC(=O)CCl)cc2)c(C#N)c2cc(OC)ccc21` [Compound 856], the IC50 was more than 2 µM.

Turning to `CCn1c(-c2ccc(NC(=O)COC)cc2)c(C#N)c2cc(OC)ccc21` [Compound 857], the IC50 lay in the range of 0.5 to 2 µM.

In the case of `CCn1c(-c2ccc(C(=O)NC)cc2)c(C#N)c2cc(OC)ccc21` [Compound 860], the IC50 fell in the range of 0.5 to 2 µM.

For `CCn1c(-c2ccc(C(=O)N3CCC3)cc2)c(C#N)c2cc(OC)ccc21` [Compound 862], the IC50 is more than 2 µM.

In the case of `CCn1c(-c2cccc(N3CCOC3=O)c2)c(C#N)c2ccc(OC)cc21` [Compound 864], the IC50 lay in the range of 0.5 to 2 µM.

Regarding `CCCn1c(-c2ccc(N3CCCS3(=O)=O)cc2)c(C=O)c2ccc(OC)cc21` [Compound 865], the IC50 is more than 2 µM.

Test system in the next data set: not given
Assay: not given
Details: not given
In turn, `CCOc1ccc2c(C#N)c(-c3ccc(N(C)S(C)(=O)=O)cc3)n(C)c2c1` had a melting point of 203 to 205 °C.

In turn, `CCn1c(-c2ccc(NC(=O)COC)cc2)c(C#N)c2ccc(OC(C)C)cc21` gave a melting point of 169 to 173 °C.

For the origin of these results see patent US8013006B2.
